Assay type in all cases: in vivo, souris
Experiment [1] has as its system modèle murin de maladie d'Alzheimer par administration du peptide amyloïde β25-35. Kind of experiment: Spontaneous alternation test in the Y-maze (spatial working memory), Aβ25-35 mouse model. The settings on record: all doses tested (12,5, 25, 50 mg/kg per day IP), day 8, Aβ25-35 9 nmol ICV. From the text: Soixante-douze souris males Swiss (30-35 grammes) sont utilisées. Six groupes sont constitués et soumis à différents traitements : Tableau 1. Groupes de traitement.
(§1) Le 1^er jour : une version « mélangée » (scrambled) du peptide amyloïde β25-35 (Sc.Aβ, témoin négatif) ou le peptide amyloïde β25-35 (Aβ25-35) est injecté par voie intra-cérébroventriculaire (ICV) (le peptide Aβ25-35 provoque l'intoxication cellulaire). Entre le 1^er jour et le 10^ème jour, les traitements sont administrés une fois par jour par voie intrapéritonéale (IP).
Du 8^ème au 10^ème jour, deux tests comportementaux sont effectués : • Procédure d'alternance spontanée dans le labyrinthe en Y (évaluation de la mémoire spatiale de travail) le 8^ème jour, soit 7 jours après l'injection de peptide; • Réponse d'évitement passif (évaluation de la mémoire contextuelle à long terme) avec l'entrainement le 9^ème jour et la séance de rétention le 10^ème jour.
Chaque souris est anesthésiée avec 2,5% d"isoflurane. Le peptide Aβ25-35 (9 nmol/souris) ou le peptide Sc.Aβ (9 nmol/souris) est injecté par voir ICV, dans un volume final de 3 µL/souris. […]

Experiment [2] deals with Bax. Put plainly: ELISA of Bax in mouse hippocampus after Aβ25-35.
From the text: as §1
(§2) A la fin de la session de rétention d'évitement passif, le 10^ème jour, les animaux sont sacrifiés par décapitation. L'hippocampe et le cortex frontal sont disséqués et congelés dans l'azote liquide. L'hippocampe est utilisé pour mesurer le taux de peroxydation lipidique à l'aide d'une méthode colorimétrique et pour évaluer les taux de 4 marqueurs biochimiques par des tests ELISA. Le cortex est conservé à -80°C en attente d'analyses supplémentaires. Les plasmas sont également conservés en attente d'analyses supplémentaires. Les échantillons biologiques sont jetés après 3 mois.
(§3) Pour tous les dosages, les […] sont homogénéisés, après décongélation, dans un tampon Tris (Tris 50 mM, 150 mM NaCl, pH 7,5) et traités par ultrasons pendant 20 secondes. […] Pour chaque dosage, l'absorbance est lue à 450 nm et la concentration est calculée en utilisant la courbe standard. Les résultats sont exprimés en pg ou ng de marqueur par mg de tissu et en pourcentage de solution Sc.Aβ + véhicule. 6 échantillons par groupe (n = 36 kits ELISA) sont dosés en double.
In general terms: In an ELISA, binding on a coated surface is turned into a signal by an enzyme label.

Experiment [3] deals with Caspase-3. Kind of experiment: ELISA of Caspase-3 in mouse hippocampus after Aβ25-35.
From the text: as §1, §2, §3

Where [4] appears, read: Aβ25-35/Etifoxine 12.5 mg/kg IP.

On to `CCNC1=Nc2ccc(Cl)cc2C(C)(c2ccccc2)O1` (stereo not shown) [Etifoxine, chlorhydratede 6-chloro-2-éthylamino-4-méthyl-4-phényl-4H-[3,1]benzoxazine], for which the “déficits d'apprentissage (alternance spontanée, mémoire spatiale)” value in experiment [1] is “atténue de façon significative les déficits d'apprentissage”. Further, the “Taux de protéine Bax” value in experiment [2] (setting [4]) is given as 180,1 ± 7,4 % de Sc.Aβ/V; in experiment [2] (Aβ25-35/Etifoxine 25 mg/kg IP), 132,6± 7,5 % de Sc.Aβ/V; in experiment [2] (Aβ25-35/Etifoxine 50 mg/kg IP), 99,9 ± 4,2 % de Sc.Aβ/V. In addition, the “Expression CASP-3” value was 136,8 ± 7,2 % de Sc.Aβ/V in experiment [3] (setting [4]), 127,3 ± 10,8 % de Sc.Aβ/V in experiment [3] (Aβ25-35/Etifoxine 25 mg/kg IP) and 109,9 ± 5,6 % de Sc.Aβ/V in experiment [3] (Aβ25-35/Etifoxine 50 mg/kg IP).

For the origin of these results see patent publication EP3454861B1, “BENZOXAZINE OR QUINAZOLINE DERIVATIVES FOR USE IN THE TREATMENT OF ALZHEIMER'S DISEASE” (Biocodex, priority 2016, dated 2017).
